Assay [1] deals with Chymotrypsinogen A (Bos taurus) (UniProt P00766). Description: Inhibitory activity using serine protease, alpha-chymotrypsin with Succ-Ala-Ala-Pro-Phe-AMC as substrate. The percent inhibition at 10 uM concentration, was reported.
For assay [2], the target named is Prothrombin (Homo sapiens) (UniProt P00734). Description: Inhibitory activity using serine protease, thrombin with Cbz-Phe-Val-Arg-AMC as substrate. The percent inhibition at 10 uM concentration, was reported.
Another assay deals with Cathepsin B (Homo sapiens, UniProt P07858). Description: Inhibitory activity using cysteine protease, Cathepsin B with Cbz-Phe-Arg-AMC as substrate.
Assay [3] concerns the target T1, Calpain-1 catalytic subunit (Homo sapiens, UniProt P07384).
T1 sequence (P07384 whole entry): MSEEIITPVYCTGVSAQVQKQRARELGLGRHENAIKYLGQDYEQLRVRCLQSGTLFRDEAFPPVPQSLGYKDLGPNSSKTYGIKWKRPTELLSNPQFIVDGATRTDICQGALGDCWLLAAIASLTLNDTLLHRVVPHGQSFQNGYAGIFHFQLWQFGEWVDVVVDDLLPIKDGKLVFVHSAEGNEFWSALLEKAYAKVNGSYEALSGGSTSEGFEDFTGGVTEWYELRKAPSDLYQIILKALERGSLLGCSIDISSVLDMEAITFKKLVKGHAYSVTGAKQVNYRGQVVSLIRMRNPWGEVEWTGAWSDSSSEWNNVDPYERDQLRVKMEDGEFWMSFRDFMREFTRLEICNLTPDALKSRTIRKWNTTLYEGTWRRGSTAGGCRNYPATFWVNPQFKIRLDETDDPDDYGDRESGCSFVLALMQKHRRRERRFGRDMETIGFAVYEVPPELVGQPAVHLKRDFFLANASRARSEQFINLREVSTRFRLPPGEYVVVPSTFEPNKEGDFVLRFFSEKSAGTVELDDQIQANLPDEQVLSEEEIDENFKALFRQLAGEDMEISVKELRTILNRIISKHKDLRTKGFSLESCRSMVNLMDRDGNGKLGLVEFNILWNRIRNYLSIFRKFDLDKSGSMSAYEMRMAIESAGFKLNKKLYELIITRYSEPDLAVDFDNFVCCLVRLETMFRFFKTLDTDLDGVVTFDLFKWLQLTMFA
Briefly: Inhibitory activity using recombinant human Calpain 1 with Suc-Leu-Tyr-MNA as substrate.

Each structure is given as a SMILES string.

For orientation: inhibition means the drop in the measured response relative to a control, in per cent. Lower therefore signals little suppression. In the case of `CC(C)C[C@@H](CCS(=O)(=O)c1ccc2ccccc2c1)C(=O)N[C@H](C=O)CC(C)C`, the inhibition in assay [1] came out at 12%; in assay [2], 2%.

Usually IC50 stands for the point on the concentration scale where inhibition reaches its midpoint. For the molecule `CC(C)C[C@H](CCSc1ccc2ccccc2c1)C(=O)N[C@H](C=O)CC(C)C`, the half-maximal inhibitory concentration (IC50) came to 60 nM at Cathepsin B and 75 nM in assay [3]. The inhibition in assay [1] came to 11%; in assay [2] it was 5%.

On to `CC(C)C[C@H](CC[S+]([O-])c1ccc2ccccc2c1)C(=O)N[C@H](C=O)CC(C)C` (some centres not stated), for which the IC50 on Cathepsin B was determined as 60 nM; in assay [3], 30 nM. In addition, the inhibition in assay [1] came to 18%; in assay [2], 2%.

On to `CC(C)C[C@H](CCS(=O)(=O)c1ccc2ccccc2c1)C(=O)N[C@H](C=O)CC(C)C`, for which the inhibition in assay [1] was 11%; in assay [2], 1%.

The values are drawn from ChEMBL document CHEMBL1129824, “Nonpeptidic inhibitors of recombinant human calpain I” (Bioorg Med Chem Lett, 1997).
